Read-outs that look alike come from different tables or passages of the source.
Molecular target: T1, LRRK2 (Homo sapiens, UniProt Q5S007, G2019S)
T1 construct: purchased Invitrogen PV4882 (lot 567054A)
Assay: In Vitro LRRK2 Assay (LabChip 3000, fluorescently-labeled peptide substrate, ATP)
Assay type: biochemical
In short: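 Read-out was LabChip capillary electrophoresis, resolving phospho- from non-phospho-peptide by fluorescence intensity. The kinase reaction combined enzyme, ATP, test compound and labeled peptide (4 μM working dilution) for 2 h in darkness before stop solution. Values were reported as Ki, from a tight-binding model with Et, S and Km, or as IC50 or percent inhibition.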

[1] = Table 10, LRRK2 Ki (micromolar), read-out: LRRK2 Ki (KI)
[2] = Table 9, LRRK2 Ki (micromolar), read-out: LRRK2 Ki (KI)
[3] = read-out: LRRK2 Ki (KI), Table 8
[4] = read-out: LRRK2 Ki (KI), Table 7

T1 sequence (Q5S007 whole entry G2019S): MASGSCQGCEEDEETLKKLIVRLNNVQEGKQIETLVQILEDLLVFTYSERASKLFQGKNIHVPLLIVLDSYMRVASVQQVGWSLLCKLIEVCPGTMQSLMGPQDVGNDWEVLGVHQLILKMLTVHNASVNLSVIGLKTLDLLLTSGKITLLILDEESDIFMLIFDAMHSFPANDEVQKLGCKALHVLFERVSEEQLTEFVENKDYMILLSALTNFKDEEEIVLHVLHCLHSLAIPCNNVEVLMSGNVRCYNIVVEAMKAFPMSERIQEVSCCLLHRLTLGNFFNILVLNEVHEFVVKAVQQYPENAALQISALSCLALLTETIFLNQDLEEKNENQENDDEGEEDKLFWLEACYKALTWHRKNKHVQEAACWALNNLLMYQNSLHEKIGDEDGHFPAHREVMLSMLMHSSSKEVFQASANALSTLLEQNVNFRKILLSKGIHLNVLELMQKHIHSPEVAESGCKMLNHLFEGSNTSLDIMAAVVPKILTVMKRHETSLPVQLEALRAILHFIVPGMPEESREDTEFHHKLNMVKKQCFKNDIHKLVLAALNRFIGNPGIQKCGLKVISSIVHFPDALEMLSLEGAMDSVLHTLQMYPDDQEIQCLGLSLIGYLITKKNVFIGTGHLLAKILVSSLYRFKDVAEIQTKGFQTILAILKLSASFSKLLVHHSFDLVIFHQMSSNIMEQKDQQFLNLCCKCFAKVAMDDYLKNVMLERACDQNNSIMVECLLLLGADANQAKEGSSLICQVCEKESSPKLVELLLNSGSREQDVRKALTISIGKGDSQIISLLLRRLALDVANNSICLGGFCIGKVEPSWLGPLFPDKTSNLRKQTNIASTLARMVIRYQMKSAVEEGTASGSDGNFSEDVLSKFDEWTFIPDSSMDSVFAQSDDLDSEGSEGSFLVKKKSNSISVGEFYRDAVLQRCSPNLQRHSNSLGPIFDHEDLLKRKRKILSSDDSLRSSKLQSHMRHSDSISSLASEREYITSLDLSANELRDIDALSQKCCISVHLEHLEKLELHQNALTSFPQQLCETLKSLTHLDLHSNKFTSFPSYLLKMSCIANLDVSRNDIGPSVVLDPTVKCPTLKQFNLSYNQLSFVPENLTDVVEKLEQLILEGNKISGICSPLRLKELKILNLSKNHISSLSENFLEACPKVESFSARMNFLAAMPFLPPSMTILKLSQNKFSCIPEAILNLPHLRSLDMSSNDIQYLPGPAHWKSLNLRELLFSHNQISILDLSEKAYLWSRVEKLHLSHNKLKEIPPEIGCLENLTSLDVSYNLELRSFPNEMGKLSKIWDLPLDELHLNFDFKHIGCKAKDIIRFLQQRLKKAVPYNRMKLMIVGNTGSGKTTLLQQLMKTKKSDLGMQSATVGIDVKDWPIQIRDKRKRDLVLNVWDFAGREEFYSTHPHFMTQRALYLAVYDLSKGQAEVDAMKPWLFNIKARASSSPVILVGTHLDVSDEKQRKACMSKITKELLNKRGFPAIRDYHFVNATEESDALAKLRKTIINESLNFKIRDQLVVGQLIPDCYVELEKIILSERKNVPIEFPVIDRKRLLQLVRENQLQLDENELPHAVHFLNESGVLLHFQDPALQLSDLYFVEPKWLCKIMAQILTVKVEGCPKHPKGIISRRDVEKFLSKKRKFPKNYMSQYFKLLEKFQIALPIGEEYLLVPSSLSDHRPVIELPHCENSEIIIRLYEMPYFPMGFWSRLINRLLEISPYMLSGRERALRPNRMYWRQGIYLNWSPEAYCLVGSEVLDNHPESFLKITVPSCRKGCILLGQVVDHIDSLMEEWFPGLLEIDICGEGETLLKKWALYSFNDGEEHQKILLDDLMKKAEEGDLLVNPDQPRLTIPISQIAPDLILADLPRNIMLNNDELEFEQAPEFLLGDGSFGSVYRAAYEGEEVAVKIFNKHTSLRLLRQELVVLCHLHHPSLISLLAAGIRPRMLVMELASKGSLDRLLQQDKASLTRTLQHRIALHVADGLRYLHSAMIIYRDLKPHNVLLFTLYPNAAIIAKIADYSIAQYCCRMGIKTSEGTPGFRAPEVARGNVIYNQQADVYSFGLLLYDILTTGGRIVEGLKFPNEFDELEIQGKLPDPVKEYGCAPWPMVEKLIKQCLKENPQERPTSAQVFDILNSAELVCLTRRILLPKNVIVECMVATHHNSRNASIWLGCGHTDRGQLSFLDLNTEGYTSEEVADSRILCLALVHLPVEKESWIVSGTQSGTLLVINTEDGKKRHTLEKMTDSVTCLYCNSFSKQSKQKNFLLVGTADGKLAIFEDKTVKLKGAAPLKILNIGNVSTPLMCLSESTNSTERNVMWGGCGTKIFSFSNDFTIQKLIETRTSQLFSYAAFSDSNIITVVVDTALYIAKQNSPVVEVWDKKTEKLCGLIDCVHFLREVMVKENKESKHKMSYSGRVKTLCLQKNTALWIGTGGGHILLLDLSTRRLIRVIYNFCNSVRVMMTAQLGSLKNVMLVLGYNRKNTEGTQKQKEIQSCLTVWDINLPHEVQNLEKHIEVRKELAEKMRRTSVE

| SMILES | Ki [3] [nM] | also measured |
| --- | --- | --- |
| CNc1nc(Nc2cn(C3(C#N)CC3)nc2C)ncc1C(F)(F)F [Example 402, 1-(3-methyl-4-(4-(methylamino)-5-(trifluoromethyl)pyrimidin-2-ylamino)-1H-pyrazol-1-yl)cyclopropane-carbonitrile] | – | Ki [1]: 3.7 nM |
| CCNc1nc(Nc2cnn(C3CCOCC3)c2C)ncc1C#N [Example 371, 4-(ethylamino)-2-(5-methyl-1-(tetrahydro-2H-pyran-4-yl)-1H-pyrazol-4-ylamino) pyrimidine-5-carbonitrile] | – | Ki [2]: 5.2 nM |
| CCNc1nc(Nc2cnn(-c3ccc(C(=O)N(C)C)cc3)c2C)ncc1C(F)(F)F [Example 157, 4-(4-(4-(ethylamino)-5-(trifluoromethyl)pyrimidin-2-ylamino)-5-methyl-1H-pyrazol-1-yl)-N,N-dimethylbenzamide] | 0.3 | – |
| CCNc1nc(Nc2cnn(C3CCC(=O)N(C)C3)c2C)ncc1C(F)(F)F (centres unmarked) [Example 151, 5-(4-(4-(ethylamino)-5-(trifluoromethyl)pyrimidin-2-ylamino)-5-methyl-1H-pyrazol-1-yl)-1-methylpiperidin-2-one] | 1.1 | – |
| CNc1nc(Nc2cnn(C3CCN(C)CC3F)c2Cl)ncc1C(F)(F)F (centres unmarked) [Example 241, N2-(5-chloro-1-(3-fluoro-1-methylpiperidin-4-yl)-1H-pyrazol-4-yl)-N4-methyl-5-(trifluoromethyl) pyrimidine-2,4-diamine] | 1.8 | – |
| CNc1nc(Nc2cn([C@@H](C)C(=O)N3CCCC3)nc2C)ncc1C(F)(F)F [Example 405, (S)-2-(3-methyl-4 (4-(methylamino)-5-(trifluoromethyl)pyrimidin-2-ylamino)-1H-pyrazol-1-yl)-1-(pyrrolidin-1-yl)propan-1-one] | – | Ki [1]: 22 nM |
| CNc1nc(Nc2cnn([C@H](C)COC)c2C)ncc1C(F)(F)F [Example 205, (R)-N2-(1-(1-methoxypropan-2-yl)-5-methyl-1H-pyrazol-4-yl)-N4-methyl-5-(trifluoromethyl) pyrimidine-2,4-diamine] | 19 | – |
| CNc1nc(Nc2cnn(CC3CC3)c2Cl)ncc1C(F)(F)F [Example 146, N2-(5-chloro-1-(cyclopropyl-methyl)-1H-pyrazol-4-yl)-N4-methyl-5-(trifluoromethyl) pyrimidine-2,4-diamine] | 0.3 | – |
| CCNc1nc(Nc2cn(CC(C)(C)O)nc2C2CC2)ncc1C(F)(F)F [Example 236, 1-(3-cyclopropyl-4-(4-(ethylamino)-5-(trifluoromethyl)pyrimidin-2-ylamino)-1H-pyrazol-1-yl)-2-methylpropan-2-ol] | 1.5 | – |
| CCNc1nc(Nc2cn(C3CCOCC3)nc2C)ncc1C(F)(F)F [Example 159, N4-ethyl-N2-(3-methyl-1-(tetrahydro-2H-pyran-4-yl)-1H-pyrazol-4-yl)-5-(trifluoromethyl) pyrimidine-2,4-diamine] | 3.9 | – |
| Cc1c(Nc2ncc(Cl)c(OCC(F)F)n2)cnn1C [Example 63, 5-chloro-4-(2,2-difluoroethoxy)-N-(1,5-dimethyl-1H-pyrazol-4-yl)pyrimidin-2-amine] | – | Ki [4]: 24 nM |
| CNc1nc(Nc2cn(C(F)F)nc2C)ncc1C#N [Example 365, 2-(1-(difluoromethyl)-3-methyl-1H-pyrazol-4-ylamino)-4-(methylamino) pyrimidine-5-carbonitrile] | – | Ki [2]: 35 nM |
| COCCn1cc(Nc2ncc(Cl)c(OC)n2)c(C)n1 [Example 19, 5-Chloro-4-methoxy-N-(1-(2-methoxyethyl)-3-methyl-1H-pyrazol-4-yl)pyrimidin-2-amine] | – | Ki [4]: 15 nM |
| CNc1nc(Nc2cn(CC(C)(C)O)nc2C2CC2)ncc1C(F)(F)F [Example 235, 1-(3-cyclopropyl-4-(4-(methylamino)-5-(trifluoromethyl)pyrimidin-2-ylamino)-1H-pyrazol-1-yl)-2-methylpropan-2-ol] | 5.1 | – |
